Measured values from a melting point compilation (Tetko et al.; mined from patent text by program, amines drawn as free bases though some values may be those of a salt).

SMILES | melting point [°C]
CC1(C)CC(S(=O)(=O)Cc2c(C(F)(F)F)nn(-c3ccccc3)c2Cl)=NO1 | 132 to 133
CCC(C)N1CCC(CNc2ccc(Cl)cc2C(=O)Nc2ccc(C)cn2)CC1 (stereo unspecified) | 126 to 128
CCCc1nn(C)c2c(=O)[nH]c(-c3cc(Br)ccc3OCC)nc12 | 157 to 159
CCN1CCC(=O)N(c2cc(Cl)ccc2C)C1=S | 142 to 145
CCOCC1Cc2cc(S(N)(=O)=O)c(Cl)c(Cl)c2O1 (stereo unspecified) | 148 to 149
COCOc1cccc(-c2ccc(-c3ccc(C(=O)O)cc3)cc2-c2ccc3c(c2)C(C)(C)CCC3(C)C)c1 | 103 to 104
COC(=O)C1OC(CC(C)C)(c2ccc(Cl)cc2)OC1C(=O)OC (stereo unspecified) | 40
CC(C)(C)c1ccccc1COc1ccc(N)cn1 | 147 to 149
O=C1c2cc3nnn(Cc4cccc(F)c4)c(=O)c3cc2OC2CCCN12 (stereo unspecified) | 183 to 185
COc1ccc(-c2cc(-c3c(-c4ccccn4)nc4ccccn34)ccn2)cc1 | 222
COc1ccc(Cl)cc1-c1c(CCO)c(=O)[nH]c2ccc(C(F)(F)F)cc12 | 216 to 217
CCC(C)SC1=C(C#N)C(c2ccccc2)(c2ccccc2)C(=O)N1 (stereo unspecified) | 155 to 156
Cc1cc(Oc2cccnc2)c(S(C)(=O)=O)cc1C(=O)N=C(N)N | 221 to 224
Cc1cc(O)c(C=O)c(C)c1Cl | 90 to 92
Cc1cc(C)c(C(=O)c2ccc(-c3ccccc3)cc2)c(C)c1 | 111 to 112
CCc1c(C(=O)O)ccc(OC)c1C | 180
C=CCC1(C(O)C(c2cccc(Cl)c2)n2ccnc2)CC2C=CC1C2 (stereo unspecified) | 134 to 135
CC(C)n1nc(-c2nc(C#Cc3ccccn3)c(N)nc2-c2ccccc2)ccc1=O | 246 to 247
NS(=O)(=O)c1ccc(SCCCO)c(C(=O)O)c1 | 204 to 206
CCCCCCCCNC(=O)n1nc(Oc2ncc(C(F)(F)F)cc2Cl)c(Cl)c1C | 61 to 62
C[C@H](C(=O)O)c1ccc2cc(OCCCCCCc3ccc(OCc4ccccc4)c(OCc4ccccc4)c3)ccc2c1 | 80 to 82
CC(=NO)c1nn(C)c2cc(Oc3ccc(Cl)cc3)ccc12 | 148 to 150
CC(=O)NC[C@H]1CN(c2ccc(C3CCN(C(=O)COCc4ccccc4)CC3)c(F)c2)C(=O)O1 | 147 to 149
O=S(=O)(Nc1cccc2c(Cl)c[nH]c12)c1cccc(Cl)c1 | 180 to 181
N#Cc1c(N2CCCC2)cc(-c2ccccc2)c2c1C(=O)c1ccccc1-2 | 166 to 168
N#CC=Cc1ccc(F)c(Cl)c1F | 76 to 77

SMILES | melting point [°C]
COc1ccccc1N1CCN(C(=O)N(C)c2cc(C)c(C)nc2OC)CC1 | 131 to 132
CCN(C(=O)c1ccccc1)[C@@H](Cc1c[nH]c2ccccc12)C(=O)OC(=O)c1ccc(N)cc1 | 181 to 183
FC(F)(F)c1cc(I)c2c(c1)ncn2-c1ccccc1 | 118 to 120
CNc1cc(Cl)c(CO)c(Cl)c1 | 108 to 111
Cc1cnc2ccc(-c3cccc(C(F)(F)F)c3)nn12 | 105 to 107
CN1C(=O)C(C(=O)Nc2ccc(F)cc2)S(=O)(=O)c2cc(F)ccc21 (stereo unspecified) | 153 to 155
O=C(CCCCCCCCCC=C(F)F)Nc1ccccc1Cl | 54 to 55
O=C(O)c1cccc(-c2ccc3[nH]cc(-c4ccc(Cl)cc4Cl)c3c2)c1 | 303 to 304
CC(C)(C)c1cnnc(NN)n1 | 117 to 118
CCCc1c(SC(=S)N(CC)CC)c2cc(Br)ccc2oc1=O | 135 to 137
COc1nc(OC)nc(C2(c3nc(OC)nc(OC)n3)OC(=O)c3c(Cl)cccc32)n1 | 126 to 127
CCC(=O)CCCCCCCc1ccc(O)c(O)c1 | 76 to 78
CCCCCc1ccc(-c2ccc(C3CCC(=O)O3)cc2)cc1 (single isomer, unassigned) | 98.8
COc1cc(-c2nc(N)sc2CCC2CCCCC2)c(OC)cc1C | 112
O=C(O)CCc1cc(-c2ccccc2)nn1Cc1ccc(Cl)cc1Cl | 160 to 161
CCN(CC)C(=O)COc1nc(-c2ccccc2)cc2ccccc12 | 102
CN1CCc2c(sc3ncn(CCCl)c(=O)c23)C1 | 159 to 161
O=C1C=c2c(c3c(c4[nH]c5ccccc5c24)Cc2ccccc2-3)=N1 | 275 to 280
Cc1nc(N)sc1C(=O)c1cccnc1 | 287 to 288
O=c1c(-c2ccccn2)c(O)c2cccnc2n1-c1ccccc1 | 332 to 333
CC(C)(C)n1cc(-c2ccc(S(=O)(=O)c3ccccc3)cc2)c2c(N)ncnc21 | 222 to 224
CC(=O)Nc1ccc2c(c1)nc(/C=C/c1ccccc1)n2-c1ccccn1 | 105 to 107
CCOC(=O)/C=C(/c1ccc(OC)cc1)c1cccc(C#N)c1 | 105 to 106
Cc1c(C=NO)c2ccccc2n1-c1ccc(O)cc1 | 171 to 173
COc1cc(Cn2[nH]c(N)cc2=O)ccc1Cl | 148
CCC(=O)Nc1cc(NC(=O)CC)cc([N+](=O)[O-])c1 | 197 to 198

SMILES | melting point [°C]
O=C(CCCCCc1ccccc1)NNC(=O)c1ccc(O)cc1 | 155 to 160
Clc1cc(Cl)cc(-c2cc[nH]n2)c1 | 156
CN(C)c1ccc(-c2cc(=O)c(C(=O)O)cn2-c2ccc(F)c(N)c2)cc1 | 198 to 201
CN1CCN(C2CC3(C)C(CCC4C3CCC3(C)C(O)C(N5CCCCC5)CC43)CC2O)CC1 (stereo unspecified) | 230 to 234
Nn1c(=O)c(=O)[nH]c2c(Br)cc(Br)cc21 | 273 to 275
CC1(C)OCC(CCBr)CO1 | 18
CS(=O)(=O)N1Cc2nc3c(N)nc4ccccc4c3n2CC(O)C1 (stereo unspecified) | 282 to 283
CCCCc1oc2ccc([N+](=O)[O-])cc2c1S(=O)(=O)c1ccc(OCCCBr)cc1 | 101
O=C(O)c1ccc2oc3ccccc3c(=O)c2c1 | > 280
CC(C)n1nc(-c2cc(-c3ccccc3)c(N)nc2-c2ccccc2)ccc1=O | 208 to 209
COc1cc(O)c(C(=O)C=Cc2ccc(N(C)C)cc2)c(OC)c1 | 197
CC(C)OC(=O)c1cc(I)c(F)cc1Cl | 38 to 43
C=CCC(CC=C)(CC=C)c1ccc(-c2nc3cc4c(cc3n2CCC)C(=N)NC4=N)cc1 | 230 to 232
FC(F)(F)Oc1ccc(C=CC(C=Cc2ccc(OC(F)(F)F)cc2)=NNC2=NCCCCN2)cc1 | 184 to 186
CCCCCc1c(C(C)C)nc(C(C)C)c(CNCC)c1-c1ccc(F)cc1 | 48 to 50
COc1cccc(CNS(=O)(=O)c2ccc(C(CC3CCCC3)C(=O)Nc3nc4ccc(OC)nc4s3)cc2)c1 (stereo unspecified) | 179 to 181
CCn1c(CCO)nc(C2CC2)c1Sc1cc(C#N)cc(C#N)c1 | 122 to 124
CC(C)c1ccc(C(=O)NCCCCN2CCN(C(c3ccccc3)c3ccccc3)CC2)c(O)n1 | 184 to 186
COc1cccc(Oc2ncccc2C(=O)NCc2ccccc2Cl)c1 | 71 to 74
Cc1ccc(Nc2c3ccccc3nc3ccccc23)cc1[N+](=O)[O-] | > 280
Cc1cc(C)c2c(c1)C(NC(=O)c1conc1C)CCC2 (stereo unspecified) | 57 to 58
NS(=O)(=O)c1cccc(NC(=O)c2cnn3ccc(-c4ccc(Cl)cc4)nc23)c1 | 345
CS(=O)(=O)Nc1cc2occ(C(N)=O)c(=O)c2cc1Oc1ccccc1F | 249 to 251
Cn1c(C(F)(F)F)cc(=O)n(-c2ccc3snc(CP(=O)(O)O)c3c2)c1=O | > 230
CSC(C(N)=O)c1cccc(C(=O)c2ccccc2)c1N (stereo unspecified) | 153 to 155
COc1ccc(-c2nc3c(C(=O)NC4CC5CCCC(C4)N5C)cccc3o2)cc1 (stereo unspecified) | 103 to 105

SMILES | melting point [°C]
NC(c1ccccc1)c1nc2ccccc2s1 (stereo unspecified) | 68 to 70
CCCSCCCCCCCCCC(=O)O | 42 to 43.5
CCOC(=O)c1cc(-c2ccccc2OC)[nH]c1N | 128
S=c1sc(=Nc2ccc(Cl)cc2)n2n1CCCC2 | 96 to 97
CCN(CC)C(=O)c1ccc(C)c(-c2nc(NC3CCN(C)CC3)nc3c2CNC(=O)N3c2c(F)cccc2F)c1 | 165 to 169
N#Cc1cnc2c(oc3ccccc32)c1O | > 310
Fc1ccc(F)c2c(NCCc3ccc(Oc4ccnc(C(F)(F)F)c4Cl)cc3)ncnc12 | 129 to 131
O=C(O)[C@H]1CC(=O)N(c2ccc(OCc3cccc(F)c3)cc2)C1 | 157
N=C(NO)c1ccc(-c2cnc(-c3ccc(C(=N)NO)cc3)nc2)cc1 | 290 to 292
CCC1CC(=Cc2ccc(N(CC)CC)cc2)C(=O)C(=Cc2ccc(N(CC)CC)cc2)C1 (stereo unspecified) | 141
CCCC(=O)c1cc2ccccc2cc1C(=O)O | 109
O=S(CCCCCCOc1ccc(C2=C(c3ccccc3)CCCc3cc(O)ccc32)cc1)Cc1ccccn1 (stereo unspecified) | 80
COc1ccc(-c2cc(=O)c3c(OC)cc(OC)c(C4=CCN(C)CC4)c3o2)c(OC)c1OC | 209 to 210
Nc1cc(-n2cc(C(=O)O)c(=O)c3cc(F)c(F)cc32)c(F)cc1F | > 270
COc1ccc(-c2ncn(Cc3ccccc3)c2-c2ccc(OC)cc2)cc1 | 165 to 167
COC(=O)c1cccc(-c2cn(C)cc(-c3cccc(C)c3)c2=O)c1 | 180 to 183
CCCCCCC(=N)NC(=S)Nc1ccc(Cl)c(Cl)c1 | 89 to 90
O=C(c1cnc(N2CCCC2)c(OCC2CCCC2)n1)N1CCCCC1 | 61 to 62
OCc1nnc(-c2ccc(-c3ccccc3)cc2)n1-c1ccccc1F | 220 to 223
CCN1CC(C#CC2CC2)(C(F)(F)F)c2cc(Cl)ccc2NC1=O (stereo unspecified) | 186 to 188
N#CCC(C(=O)N1C(=O)OCC1c1ccccc1)c1ccccc1F (stereo unspecified) | 179 to 181
CC(C)Oc1cccc2c1C(=NNc1ccc(S(N)(=O)=O)cc1)C(=O)N2 | > 250
CN1CCN(c2ccc([N+](=O)[O-])cc2C(F)(F)F)C1=O | 119 to 120
